Experiment: Single-dose crossover bioavailability study of Compound 1/Compound 2 mini-tablets
Format: in vivo, human
Conditions: for t1/2: Compound 1, fasting, harmonic mean, N = 14; for effect of administration with food on bioavailability: co-formulated mini-tablets, solid dispersion form, with food vs fasting
Description: In comparison, when administered with food, the mini-tablets provided an AUC that was only 5% lower than that provided by the regular tablets. […] All of the reference AUCs of the regular tablets were measured under fasting conditions. 14 subjects were enrolled in this study and dosed with co-formulated Compound 1/Compound 2 in mini-tablets. One subject spilled 4 mini-tablets (out of 100-150 total mini-tablets) during dosing of Period 2 (Regimen G) and was not excluded from the analysis. The mini-tablets were prepared according to a process similar to that described in Example 2. [table] [table]

SMILES | t1/2 (Regimen F: mini-tablets 200 mg/120 mg) | t1/2 (Regimen J: two 100 mg Compound 1 tablets and three 40 mg Compound 2 tablets) | effect of administration with food on bioavailability | AUC lower than that provided by regular tablets (mini-tablets containing 200 mg Compound 1, with food, vs two regular tablets under fasting conditions) | AUC lower than that provided by regular tablets (mini-tablets containing 200 mg Compound 1, without food, vs two regular tablets (same amount, same solid dispersion) under fasting conditions) | AUC higher than that provided by regular tablets (mini-tablets containing 120 mg Compound 2, with food, vs three regular tablets under fasting conditions) | AUC lower than that provided by regular tablets (mini-tablets containing 120 mg Compound 2, without food, vs three regular tablets under fasting conditions)
CC(C)(C)[C@@H]1NC(=O)O[C@@H]2CCC[C@H]2OC/C=C/C(F)(F)c2nc3ccccc3nc2O[C@@H]2C[C@@H](C(=O)N[C@]3(C(=O)NS(=O)(=O)C4(C)CC4)C[C@H]3C(F)F)N(C2)C1=O [Compound 1] | 5.61 h | 5.93 h | significantly increase | 5% | 41% | – | –
COC(=O)N[C@H](C(=O)N1CCC[C@H]1c1nc2cc([C@H]3CC[C@H](c4cc5nc([C@@H]6CCCN6C(=O)[C@@H](NC(=O)OC)[C@@H](C)OC)[nH]c5cc4F)N3c3cc(F)c(N4CCC(c5ccc(F)cc5)CC4)c(F)c3)c(F)cc2[nH]1)[C@@H](C)OC [Compound 2] | – | – | significantly increase | – | – | 6% | 28%
